Assay results published in patent US12186283B2, “Bismuth-thiol compositions and methods of use” (Microbion Corporation, priority 2018, dated 2025).
Converted amounts (≈) assume the structure as drawn. Like-named read-outs stand apart in the source and are kept apart here.

Experiments:
[1] = tested on: Staphylococcus aureus (MRSA); settings: S. aureus MMX 101 (ATCC 29213); cited from earlier work
Escherichia coli = settings: E. coli MMX 102 (ATCC 25922); cited from earlier work
[2] = tested on: Enterococcus spp. (E. faecalis, E. faecium); assay: Broth microdilution MIC (Example 11); format: cell-based; settings: VRE, VRE
Pseudomonas aeruginosa = settings: P. aeruginosa MMX 103 (ATCC 27853); cited from earlier work
[3] = tested on: Candida spp. (C. parapsilosis, C. albicans, C. glabrata, C. tropicalis); settings: C. parapsilosis MMX 2323 (ATCC 22019), cited from earlier work
E. coli ATCC 25922 = assay: Broth microdilution MIC, QC organism (Example 13, Table 110); format: cell-based, Escherichia coli
Excerpt: (§1) MECs were only reported where observed.

Candida krusei [4] = assay: Broth microdilution MIC, yeast (Example 13); format: cell-based; settings: C. krusei ATCC 6258 (QC, Table 110), comparators, single value
Aspergillus spp. [5] = settings: cited from earlier work
S. aureus ATCC 29213 = assay: Broth microdilution MIC, QC organism (Example 13, Table 110); format: cell-based, Staphylococcus aureus
Excerpt: as §1

Candida krusei [6] = settings: C. krusei ATCC 6258, CLSI established QC range, cited from earlier work
[7] = tested on: Candida spp. (C. parapsilosis, C. albicans, C. glabrata, C. tropicalis); assay: Broth microdilution MIC, yeast (Example 11); format: cell-based
Candida spp. [8] = assay: Broth microdilution MIC, yeast (Example 13), group statement and QC; format: cell-based; settings: C. parapsilosis ATCC 22019, comparators, single value
Candida spp. [9] = settings: C. parapsilosis ATCC 22019, CLSI established QC range, cited from earlier work
Aspergillus spp. [10] = assay: Broth microdilution MIC/MEC, mold (Example 13); format: cell-based
[11] = tested on: S. pneumoniae (pneumococci); settings: S. pneumoniae MMX 6837 (ATCC 49619); cited from earlier work
[12] = tested on: S. pneumoniae (pneumococci); assay: Broth microdilution MIC (Example 11); format: cell-based, Streptococcus pneumoniae
[13] = tested on: beta-hemolytic streptococci (S. pyogenes, S. agalactiae); assay: Broth microdilution MIC (Example 11); format: cell-based, Streptococcus pyogenes, Streptococcus agalactiae
[14] = Enterococcus faecium, E. faecium MMX 485, vanA, LevR, CipR, EryR, read-out: MIC
[15] = A. flavus ATCC 204304, CLSI established QC range
[16] = A. fumigatus ATCC MYA-3626, CLSI established QC range
[17] = A. flavus ATCC 204304 (QC, Table 110)
[18] = A. fumigatus ATCC MYA-3626 (QC, Table 110)
[19] = S. agalactiae MMX 3741, ERY^R CC^R
[20] = S. agalactiae MMX 3743, ERY^R CC^R
[21] = S. agalactiae MMX 4077, ERY^R CC^R
[22] = S. agalactiae MMX 4079, ERY^R CC^R Pen^R MEM^R
[23] = S. agalactiae MMX 4086, ERY^R CC^R

## CC(C)(O/N=C(\C(=O)N[C@@H]1C(=O)N2C(C(=O)[O-])=C(C[n+]3ccccc3)CS[C@H]12)c1csc(N)n1)C(=O)O [Ceftazidime]
[1]
  CLSI QC range (MIC): (4-16) μg/mL
Escherichia coli
  CLSI QC range (MIC): (0.06-0.5) μg/mL
[2]; [14]
  MIC: > 32 µg/mL
Pseudomonas aeruginosa
  CLSI QC range (MIC): (1-4)

## C[C@@H]1[C@H](O)[C@@H](C)/C=C/C=C/C=C/C=C/C=C/C=C/C=C/[C@H](O[C@@H]2O[C@H](C)[C@@H](O)[C@H](N)[C@@H]2O)C[C@@H]2O[C@](O)(C[C@@H](O)C[C@@H](O)[C@H](O)CC[C@@H](O)C[C@@H](O)CC(=O)O[C@H]1C)C[C@H](O)[C@H]2C(=O)O [Amphotericin B]
[3]; 24 hr
  MIC, CLSI QC range: 0.25 to 2 µg/mL
[3]; 48 hr
  MIC, CLSI QC range: 0.5 to 4 µg/mL
E. coli ATCC 25922
  MIC 24 hr: > 64 µg/mL
Candida krusei [4]
  MIC 24 hr: 0.5 µg/mL (≈ 0.541 µM)
  MIC 48 hr: 0.5 µg/mL (≈ 0.541 µM)
Aspergillus spp. [5]; [15]
  QC Range 48 hr: 0.5-4
Aspergillus spp. [5]; [16]
  QC Range 48 hr: 0.5-4
S. aureus ATCC 29213
  MIC 24 hr: > 64 µg/mL
Candida krusei [6]
  QC Range 24 hr: 0.5-2
  QC Range 48 hr: 1-4
[7]; C. albicans MMX 7039, Sensitive, 24 hr
  MIC: 0.5, 0.5 μg/mL
[7]; C. albicans MMX 7039, Sensitive, 48 hr
  MIC: 0.5, 0.5 μg/mL
[7]; C. albicans MMX 7055, Sensitive, 24 hr
  MIC: 0.25 µg/mL (≈ 0.271 µM)
[7]; C. albicans MMX 7055, Sensitive, 48 hr
  MIC: 0.5 µg/mL (≈ 0.541 µM)
[7]; C. glabrata MMX 7086, FLU^R, 24 hr
  MIC: 0.5 µg/mL (≈ 0.541 µM)
[7]; C. glabrata MMX 7086, FLU^R, 48 hr
  MIC: 1 µg/mL (≈ 1.08 µM)
[7]; C. glabrata MMX 7318, FLU^R, 24 hr
  MIC: 0.5 µg/mL (≈ 0.541 µM)
[7]; C. glabrata MMX 7318, FLU^R, 48 hr
  MIC: 1 µg/mL (≈ 1.08 µM)
[7]; C. parapsilosis MMX 2323 (ATCC 22019), QC, 24 hr
  MIC: 0.5 µg/mL (≈ 0.541 µM)
[7]; C. parapsilosis MMX 2323 (ATCC 22019), QC, 48 hr
  MIC: 1 µg/mL (≈ 1.08 µM)
[7]; C. parapsilosis MMX 7370, FLU^R, 24 hr
  MIC: 0.5 µg/mL (≈ 0.541 µM)
[7]; C. parapsilosis MMX 7370, FLU^R, 48 hr
  MIC: 1 µg/mL (≈ 1.08 µM)
[7]; C. parapsilosis MMX 7555, FLU^R, 24 hr
  MIC: 0.5, 0.5 μg/mL
[7]; C. parapsilosis MMX 7555, FLU^R, 48 hr
  MIC: 0.5, 0.5 μg/mL
[7]; C. tropicalis MMX 7247, FLU^R, 24 hr
  MIC: 0.5 µg/mL (≈ 0.541 µM)
[7]; C. tropicalis MMX 7247, FLU^R, 48 hr
  MIC: 1 µg/mL (≈ 1.08 µM)
[7]; C. tropicalis MMX 7248, FLU^R, 24 hr
  MIC: 0.5 µg/mL (≈ 0.541 µM)
[7]; C. tropicalis MMX 7248, FLU^R, 48 hr
  MIC: 1 µg/mL (≈ 1.08 µM)
[7]; C. tropicalis MMX 7360, FLU^R, 24 hr
  MIC: 0.5, 0.5 μg/mL
[7]; C. tropicalis MMX 7360, FLU^R, 48 hr
  MIC: 0.5, 0.5 μg/mL
Candida spp. [8]
  MIC 24 hr: 0.5 µg/mL (≈ 0.541 µM)
  MIC 48 hr: 0.5 µg/mL (≈ 0.541 µM)
Candida spp. [9]
  QC Range 24 hr: 0.25-2
  QC Range 48 hr: 0.5-4
Aspergillus spp. [10]; [17]
  MIC 24 hr: 0.5 µg/mL (≈ 0.541 µM)
  MIC 48 hr: 1 µg/mL (≈ 1.08 µM)
Aspergillus spp. [10]; [18]
  MIC 24 hr: 0.5 µg/mL (≈ 0.541 µM)
  MIC 48 hr: 1 µg/mL (≈ 1.08 µM)

## OC(Cn1cncn1)(Cn1cncn1)c1ccc(F)cc1F [fluconazole, reference compound]
[3]; 24 hr
  MIC, CLSI QC range: 0.5 to 4 µg/mL
[3]; 48 hr
  MIC, CLSI QC range: 1 to 4 µg/mL
E. coli ATCC 25922
  MIC 24 hr: > 64 µg/mL
Candida krusei [4]
  MIC 24 hr: 16 µg/mL (≈ 52.2 µM)
  MIC 48 hr: 32 µg/mL (≈ 104 µM)
S. aureus ATCC 29213
  MIC 24 hr: > 64 µg/mL
Candida krusei [6]
  QC Range 24 hr: 8-64
  QC Range 48 hr: 16-128
Candida spp. [8]
  MIC 24 hr: 1 µg/mL (≈ 3.27 µM)
Candida spp. [9]
  QC Range 24 hr: 0.5-4
  QC Range 48 hr: 1-4
Aspergillus spp. [10]; Aspergillus spp.
  activity: inactive

## Penicillin
[11]
  MIC, CLSI QC range: (0.25-1) μg/mL
[12]; S. pneumoniae MMX 880, Lev^R SXT^R CC^R Ery^R Pen^R
  MIC: 2 µg/mL
[12]; S. pneumoniae MMX 937, Mem^R SXT^R CC^R Ery^R Pen^R
  MIC: 4 µg/mL
[12]; S. pneumoniae MMX 3959, CC^R Ery^R
  MIC: 0.12 µg/mL
[12]; S. pneumoniae MMX 5440, Mem^R SXT^R CC^R Ery^R Pen^R
  MIC: 4 µg/mL
[12]; S. pneumoniae MMX 5445, Mem^R SXT^R CC^R Ery^R Pen^R
  MIC: 4 µg/mL
[12]; S. pneumoniae MMX 6837 (ATCC 49619), QC
  MIC: 0.25 µg/mL
[12]; S. pneumoniae MMX 8133, Mem^R SXT^R CC^R Ery^R Pen^R
  MIC: 4 µg/mL
[13]; [19]
  MIC: 0.03 µg/mL
[13]; [20]
  MIC: 0.06 µg/mL
[13]; [21]
  MIC: 0.06 µg/mL
[13]; [22]
  MIC: 2 µg/mL
[13]; [23]
  MIC: 0.06 µg/mL
[13]; S. pyogenes MMX 3068, Ery^R
  MIC: ≤0.008 µg/mL
[13]; S. pyogenes MMX 3820, ERY^R CLI^R
  MIC: ≤0.008 µg/mL
[13]; S. pyogenes MMX 3919, ERY^R
  MIC: ≤0.008 µg/mL
[13]; S. pyogenes MMX 3929, ERY^R CC^R
  MIC: ≤0.008 µg/mL
[13]; S. pyogenes MMX 5091, ERY^R CC^R
  MIC: ≤0.008 µg/mL

## CC[C@H]1OC(=O)[C@H](C)[C@@H](O[C@H]2C[C@@](C)(OC)[C@@H](O)[C@H](C)O2)[C@H](C)[C@@H](O[C@@H]2O[C@H](C)C[C@H](N(C)C)[C@H]2O)[C@](C)(O)C[C@@H](C)C(=O)[C@H](C)[C@@H](O)[C@]1(C)O [Erythromycin]
[1]
  CLSI QC range (MIC): (0.25-1) μg/mL
[11]
  MIC, CLSI QC range: (0.03-0.12) μg/mL
[2]; [14]
  MIC: > 64 µg/mL
[13]; S. agalactiae MMX 3741, ERY^R CC^R, read-out: MIC
  MIC: 8 µg/mL (≈ 10.9 µM)
[13]; S. agalactiae MMX 3743, ERY^R CC^R, read-out: MIC
  MIC: > 8 µg/mL
[13]; S. agalactiae MMX 4077, ERY^R CC^R, read-out: MIC
  MIC: > 8 µg/mL
[13]; S. agalactiae MMX 4079, ERY^R CC^R Pen^R MEM^R, read-out: MIC
  MIC: > 8 µg/mL
[13]; S. agalactiae MMX 4086, ERY^R CC^R, read-out: MIC
  MIC: > 8 µg/mL

## CN[C@H](CC(C)C)C(=O)N[C@H]1C(=O)N[C@@H](CC(N)=O)C(=O)N[C@H]2C(=O)N[C@H]3C(=O)N[C@H](C(=O)N[C@H](C(=O)O)c4cc(O)cc(O)c4-c4cc3ccc4O)[C@H](O)c3ccc(c(Cl)c3)Oc3cc2cc(c3O[C@@H]2O[C@H](CO)[C@@H](O)[C@H](O)[C@H]2O[C@H]2C[C@](C)(N)[C@H](O)[C@H](C)O2)Oc2ccc(cc2Cl)[C@H]1O [vancomycin, reference compound]
[1]
  CLSI QC range (MIC): (0.5-2) μg/mL
[11]
  MIC, CLSI QC range: (0.12-0.5) μg/mL
[2]; E. faecalis MMX 8961, LevR, CipR, EryR
  MIC: >64 µg/mL
[2]; E. faecalis MMX 8962, LevR, CipR, EryR
  MIC: >64 µg/mL
[2]; E. faecium MMX 485, vanA, LevR, CipR, EryR
  MIC: >64 µg/mL
[2]; Enterococcus faecalis
  MIC: > 64 µg/mL
[2]; Enterococcus faecium
  MIC: > 64 µg/mL
[13]; [19]
  MIC: 0.5 µg/mL (≈ 0.345 µM)
[13]; [20]
  MIC: 0.5 µg/mL (≈ 0.345 µM)
[13]; [21]
  MIC: 0.5 µg/mL (≈ 0.345 µM)
[13]; [22]
  MIC: 2 µg/mL (≈ 1.38 µM)
[13]; [23]
  MIC: 1 µg/mL (≈ 0.69 µM)

## C[C@@H](c1ncncc1F)[C@](O)(Cn1cncn1)c1ccc(F)cc1F [Voriconazole]
E. coli ATCC 25922
  MIC 24 hr: > 64 µg/mL
Candida krusei [4]
  MIC 24 hr: 0.12 µg/mL (≈ 0.344 µM)
  MIC 48 hr: 0.5 µg/mL (≈ 1.43 µM)
Aspergillus spp. [5]; [15]
  QC Range 48 hr: 0.5-4
Aspergillus spp. [5]; [16]
  QC Range 48 hr: 0.25-1
S. aureus ATCC 29213
  MIC 24 hr: > 64 µg/mL
Candida krusei [6]
  QC Range 24 hr: 0.06-0.5
  QC Range 48 hr: 0.12-1
Candida spp. [8]
  MIC 48 hr: 0.12 µg/mL (≈ 0.344 µM)
Candida spp. [9]
  QC Range 24 hr: 0.015-0.12
  QC Range 48 hr: 0.03-0.25
Aspergillus spp. [10]; [17]
  MIC 24 hr: 0.12 µg/mL (≈ 0.344 µM)
Aspergillus spp. [10]; [18]
  MIC 24 hr: 0.25 µg/mL (≈ 0.716 µM)
